{"source": "patent US11382949B2", "about": "“Anthelmintic depsipeptide compounds” (BOEHRINGER INGELHEIM ANIMAL HEALTH USA INC., priority 2016, dated 2022)", "tested_on": "Microfilaria of Dirofilaria immitis", "assay": "Method A: screening of compounds against microfilaria of Dirofilaria immitis (microtitre plate, survival at 72 hours)", "format": "cell-based", "details": "read-out: mean EC50 values", "data": [{"smiles": "C[C@H]1OC(=O)[C@H](CC(C)(C)C)N(C)C(=O)[C@@H](Cc2ccc(SC(F)(F)F)cc2)OC(=O)[C@H](CC(C)(C)F)N(C)C(=O)[C@@H](C)OC(=O)[C@H](CC(C)(C)C)N(C)C(=O)[C@@H](Cc2ccc(SC(F)(F)F)cc2)OC(=O)[C@H](CC(C)(C)F)N(C)C1=O", "note": "[44-46/1-4, (3S,6R,9S,12R,15S,18R,21S,24R)-3,15-bis(2-fluoro-2-methylpropyl)-4,6,10,16,18,22-hexamethyl-9,21-dineopentyl-12,24-bis(4-(trifluoromethylthio)benzyl)-1,7,13,19-tetraoxa-4,10,16,22-tetraazacyclotetracosan-2,5,8,11,14,17,20,23-octaone]", "values": [{"measurement": "EC50", "result": "< 1", "unit": "µM"}]}]}
